Reference: US9606108B2, “Deformable platforms for biological assays” (President and Fellows of Harvard College, priority 2011, dated 2017)

System: human airway smooth muscle (HASM) cells
Experiment: High-throughput traction microscopy (HTTM): RMS traction of HASM cell monolayers on gel in 96-well plates, before and after adding drug
Assay type: cell-based
Conditions: for normalized traction (RMS traction after adding drug/RMS traction before adding drug): control drugs on zero-hit drug plate, FIG. 14; for change in cellular contraction (RMS traction) with increasing doses: FIG. 13, control drugs
Procedure: Acrylamide gels with 1.8 kPa stiffness and 200-μm thickness were made in 96-well plates, fluorescent markers were coated in a single layer (0.2 μm) onto gel surfaces, and the gel plates were mounted on a fluorescent microscope with motorized stage. On each gel, HASM cells from a single donor were cultured to near confluence. Each well was seeded with 20,000 cells and was serum deprived for 2 days. FIG. 9 illustrates an example layout of a multiwell plate. Imaging of the fluorescent markers included 10× magnification, at 37° C. Three rounds of imaging was performed per plate. For each imaging, two florescent images and one phase image was acquired. Since a common problem for circular shape dishes is rotation of wells, the multi-well plate is optionally a rectangular shape, so that one can easily find the same location in each well. Images of fluorescent markers in each well are taken before cell seeding. In addition, one can store the exact z-position of best sensor focus on each well. It is known that the multi-well plate may not be perfectly flat (e.g., there can be sagging in the middle of the plate). In addition, small changes in sensor depth focus can jeopardize image quality and in turn, traction calculation. Therefore, a prescanning step can aid in screening. After prescanning, wells are seeded with cells and a regular cell culture protocol can be followed. In example 3, a baseline-scanning typically takes fifteen minutes. Drugs can be added and the plates can be incubated for a certain time (e.g., in example 3, incubation occurred over a period of one hour). After incubation, a drug-scan can occur. Thus, three images (prescan, baseline-scan, and drug-scan) are acquired. FIG. 7 is a series of images illustrating a set of three example acquired images. At 700 is a fluorescent image of a bottom bead (0.5 μm). At 710 is a phase contrast image. At 720 is a fluorescent image of a yellow/green bead 0.2 μm. Root mean square values of the absolute traction forces were calculated before and after adding drugs. FIG. 10 illustrates an example process flow diagram 1000 for high-throughput screening using cellular contraction. For example, using the process illustrated in FIG. 10 and a 96 well plate, each scan takes approximately 15 minutes. Since each plate goes through a baseline scan, drug incubation (60 minutes), and a drug scan, it takes approximately 90 minutes per plate. Drug-induced changes in traction provide a simple and physiologically relevant index to identify hits, i.e., those molecules that appreciably reduce cellular traction forces. FIG. 8 is a series of images illustrating six absolute cell traction maps. At 800-850 are cell traction maps for 0.5% Dimethylsulfoxide (DMSO), 1% Fetal Bovine Serum (FBS), 10 μM Y27632, both before and after adding drugs. Y27632 is an inhibitor of the Rho-associated protein kinase, which is known to reduce cellular contraction. […] The treatment of 1% FBS increased RMS traction by 77% from the baseline. The treatment of 10 uM Y-27632 decreased RMS traction by 71% from the baseline. The ratio of RMS tractions of before and after drug treatment (or, normalized contraction) is an index to evaluate the effects of drugs in both stiffening and softening responses.

Row | SMILES | measured change in RMS traction (ratio of RMS tractions before and after drug treatment, normalized contraction) (10 μM Y27632, FIG. 8) | decrease of RMS traction from the baseline (10 uM Y-27632) [%] | normalized traction (RMS traction after adding drug/RMS traction before adding drug) | change in cellular contraction (RMS traction) with increasing doses | decrease in cellular contraction (increasing doses of isoproterenol, FIG. 13) | normalized traction (iso 50 μM, FIG. 12)
1 | C[C@@H](N)[C@H]1CC[C@H](C(=O)Nc2ccncc2)CC1 [Y27632] | 0.29 | 71 | decreased traction | decreasing cellular contraction in a dose dependent manner | – | –
2 | CC(C)NCC(O)c1ccc(O)c(O)c1 (centres unmarked) [isoproterenol] | – | – | decreased traction | did not appear dose dependent | more than 50% | below 0.5
